From patent publication US20180185332A1, “Leukotriene Receptor Antagonists and Their Derivatives for Use as Antibacterial Agents” (University of East London, priority 2013, published 2018)
In brackets after ≈: the same amount, converted by molar mass.

Experiments:
MRSA = test: Minimum inhibitory concentration (MIC) in broth; format: cell-based, methicillin resistant Staphylococcus aureus; conditions: Staphylococcus aureus, 10^5 cfu/mL, overnight at 37° C., no visible growth
Experimental: (§1) Zafirlukast (Sigma Aldrich, UK) was resuspended in Dimethyl Sulfoxide to a concentration of 16 mM. A minimum inhibitory concentration (MIC) was conducted using various bacterial broth solutions containing between the 0 and 4 mM zafirlukast. 10^5 cfu/mL of test organism was added to each tube before incubation overnight at 37° C. The MIC was taken to be the concentration at which no visible growth was observed. In addition, zone inhibition studies were carried out using standard techniques.
(§2) The bacterial species tested included Staphylococcus aureus, methicillin resistant Staphylococcus aureus, Enterococcus faecalis, Bacillus subtilis, Streptococcus pneumoniae, and Clostridium difficile.
(§3) MIC is well known to the skilled person and is defined as the lowest concentration of agent which prevents visible growth of the bacterial strain under investigation.

Staphylococcus aureus = test: Minimum inhibitory concentration (MIC) in broth; format: cell-based; conditions: 10^5 cfu/mL, overnight at 37° C., no visible growth
Experimental: as §1, §2, §3

Bacillus subtilis = test: Minimum inhibitory concentration (MIC) in broth; format: cell-based; conditions: 10^5 cfu/mL, overnight at 37° C., no visible growth
Experimental: as §1, §2, §3

B. subtilis = test: Bactericidal activity, viable counts (percentage survival); format: cell-based; conditions: 3 hrs at 37° C., FIG. 2
Experimental: (§4) 10^5 cfu/mL of bacterial culture was incubated in the presence of various concentrations of zafirlukast for a period of 3 hrs at 37° C. At the end of this incubation, viable counts were taken and results recoded as percentage survival (as compared to the drug free control).

S. aureus = test: as above; format: cell-based; conditions: 3 hrs at 37° C., FIG. 2
Experimental: as §4

[1] = in vivo, po; cited from earlier work
[2] = test system: Mycobacterium tuberculosis; conditions: Pinault et al 2013; cited from earlier work
Mycobacterium smegmatis = conditions: Pinault et al 2013; cited from earlier work
Lsr2 = Lsr2 (Mycobacterium tuberculosis, UniProt P9WIP7); conditions: Pinault et al 2013; cited from earlier work
E. coli = conditions: Pinault et al 2013; cited from earlier work

| Structure (SMILES) | MIC (MRSA) [µM] | MIC (Staphylococcus aureus) [µM] | MIC (Bacillus subtilis) [µM] | bactericidal activity (B. subtilis) | bactericidal activity (S. aureus) | plasma half-life [1] | growth of Mycobacterium tuberculosis [2] | bactericidal activity against M. smegmatis (Mycobacterium smegmatis) | growth of Mycobacterium smegmatis (Mycobacterium smegmatis) | complexation of Lsr2 with DNA (Lsr2) | effect on the growth of E. coli (E. coli) |
| --- | --- | --- | --- | --- | --- | --- | --- | --- | --- | --- | --- |
| CO/N=C(\C(=O)N[C@@H]1C(=O)N2C(C(=O)O)=C(CSc3nc(=O)c(=O)[nH]n3C)CS[C@H]12)c1csc(N)n1 [Ceftriaxone] | 22 (≈ 12.2 µg/mL) | 2 (≈ 1.11 µg/mL) | > 29 |  |  |  |  |  |  |  |  |
| O=C(O)c1cn(C2CC2)c2cc(N3CCNCC3)c(F)cc2c1=O [Ciprofloxacin] | 40 (≈ 13.3 µg/mL) | 3 (≈ 0.994 µg/mL) | > 12 |  |  |  |  |  |  |  |  |
| COc1cc(C(=O)NS(=O)(=O)c2ccccc2C)ccc1Cc1cn(C)c2ccc(NC(=O)OC3CCCC3)cc12 [Zafirlukast, [3-[2-Methoxy-4-(toluene-2-sulfonylaminocarbonyl)benzyl]-I-methyl-IH-indol-5-yl]carbamic acid cyclopentyl ester] | 6 (≈ 3.45 µg/mL) | 30 (≈ 17.3 µg/mL) | 6 (≈ 3.45 µg/mL) | bactericidal activity | bactericidal activity | approximately 10 hours | inhibits the growth | exhibits bactericidal activity | inhibits the growth | inhibits the complexation | no effect |
